Data on five compounds can be found in US7691887B2, “Triazole derivatives which are SMO antagonists” (Merck Sharp & Dohme Corp., priority 2007, dated 2010).

The subject of the assay is Hh pathway (Smo) in Shh-Light II cells. The assay is described as follows: Shh-Light II Reporter Assay (firefly/Renilla luciferase). The class given is cell-based. To be noted: Mus musculus; for pIC50: 3 uM Purmorphamine stimulation, 30 hrs. As to the method:
Shh-Light II Reporter Assay
Assay designed to measure firefly and Renilla luciferase, in the same well.
Prior to assay the Shh-Light II cells (ATCC Catalog No. CRL-2795) were cultured in growth media
Day −1: seed 60,000 Shh-Light II cells in assay medium 75 uL/well, in presence of DMSO/inhibitor.
Day 0: after overnight incubation at 37° C. 10% CO2 add 3 uM of Purmorphamine (Calbiochem 540220) in water.
Day 1: After 30 hrs at 37° C. 10% CO2 of incubation develop the assay, directly to cells in growth medium. • Add 75 μl of DualGlow Luciferase Reagent (Promega, E2940) • Incubate 10 min. in the dark • Read plate at Luminometer: TopCount, by PerkinElmer • Add 75 ul of DualGlow Stop & Glow • Incubate 10 min. in the dark • Read plate at Luminometer: TopCount, by PerkinElmer. • Output is the ratio between FireFly/Renilla counts Growth Media: For Growth:
DMEM: Dulbecco's Mod Eagle Medium with 0.11 G/L Pyr, with Pyridoxine. (GIBCO Cat No: 41966-029). The medium has complemented with 10% FCS (fetal bovine serum), 1% Penicillin-Streptomycin (10 mg/ml) (GIBCO, 15140-114) and 1% L-Glutamine 200 mM (100×) (GIBCO, 3042190) and 0.4 mg/ml of G418 (Roche) and 0.15 mg/ml Zeocyne (Invitrogen R-250-01). Cells cultured at 10% CO2.
DMEM: Dulbecco's Mod Eagle Medium with 0.11 G/L Pyr, with Pyridoxine. (GIBCO Cat No: 21063-045), without Phenol Red. The medium has complemented with 2% FCS (fetal bovine serum), 1% Penicillin-Streptomycin (10 mg/ml) (GIBCO, 15140-114) and 1% L-Glutamine 200mM (100×) (GIBCO, 3042190). Cells cultured at 10% CO2. DMSO 0.25%.

pIC50: −log10 of the molar value.

In turn, `Cn1c(-c2ccccc2C(F)(F)F)nnc1C12CCC(c3noc(C(C)(F)F)n3)(CC1)CC2` [Example 1, 5-(1,1-Difluoroethyl)-3-(4-{4-methyl-5-[2-(trifluoromethyl)phenyl]-4H-1,2,4-triazol-3-yl}bicyclo[2.2.2]oct-1-yl)-1,2,4-oxadiazole] had an inhibition at 5 µM (5 μM compound) of 35%.
Take `Cn1c(-c2ccccc2C(F)(F)F)nnc1C12CCC(c3noc(C4CC(F)(F)C4)n3)(CC1)CC2` [Example 2, 5-(3,3-Difluorocyclobutyl)-3-(4-{4-methyl-5-[2-(trifluoromethyl)phenyl]-4H-1,2,4-triazol-3-yl}bicyclo[2.2.2]oct-1-yl)-1,2,4-oxadiazole]: the negative logarithm of the IC50 (pIC50) is 5.85.
With `Cn1c(-c2ccccc2C(F)(F)F)nnc1C12CCC(c3noc(C(C)(C)F)n3)(CC1)CC2` [Example 3, 5-(1-Fluoro-1-methylethyl)-3-(4-{4-methyl-5-[2-(trifluoromethyl)phenyl]-4H-1,2,4-triazol-3-yl}bicyclo[2.2.2]oct-1-yl)-1,2,4-oxadiazole], the negative logarithm of the IC50 (pIC50) is 5.38.
The compound `Cn1c(-c2ccccc2C(F)(F)F)nnc1C12CCC(c3nnc(C(C)(F)F)o3)(CC1)CC2` [Example 4, 2-(1,1-Difluoroethyl)-5-(4-{4-methyl-5-[2-(trifluoromethyl)phenyl]-4H-1,2,4-triazol-3-yl}bicyclo[2.2.2]oct-1-yl)-1,3,4-oxadiazole] had a pIC50 of 5.03.
Compound `Cn1c(-c2ccccc2C(F)(F)F)nnc1C12CCC(c3nnc(C4CC(F)(F)C4)o3)(CC1)CC2` [Example 5, 2-(3,3-Difluorocyclobutyl)-5-(4-{4-methyl-5-[2-(trifluoromethyl)phenyl]-4H-1,2,4-triazol-3-yl}bicyclo[2.2.2]oct-1-yl)-1,3,4-oxadiazole] gave a pIC50 of 5.70.

What is called inhibition is how much of the control response was suppressed. A lower inhibition goes with a response near the control. What is called pIC50 is −log10 of the IC50, conventionally taken in molar units.
